Measured values from US10377718B2, “Apelin receptor (APJ) agonists and uses thereof” (Research Triangle Institute, priority 2014, dated 2019).

Target: T1, apelin receptor (APJ) (Homo sapiens, UniProt P35414)
T1 sequence (P35414 1-380): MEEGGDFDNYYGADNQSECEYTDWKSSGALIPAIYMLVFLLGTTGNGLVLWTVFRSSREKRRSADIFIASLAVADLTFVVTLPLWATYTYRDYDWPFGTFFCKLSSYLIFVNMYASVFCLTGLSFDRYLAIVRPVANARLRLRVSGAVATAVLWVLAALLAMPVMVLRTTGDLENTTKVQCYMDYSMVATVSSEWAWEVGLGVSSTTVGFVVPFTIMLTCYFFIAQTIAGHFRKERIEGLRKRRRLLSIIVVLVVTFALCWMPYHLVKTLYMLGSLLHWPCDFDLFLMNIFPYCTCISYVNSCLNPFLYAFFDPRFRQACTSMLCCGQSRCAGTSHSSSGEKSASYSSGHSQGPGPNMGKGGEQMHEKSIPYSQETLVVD
Assay: in vitro apelin agonist activity (methods of Giddings et al., Apelin-13 as positive control)
Assay type: cell-based
Settings: apelin agonist activity, Giddings et al. method; read-out: agonist activity (EC50)
Source text: The compounds above were studied for their in vitro activity as apelin agonists using the methods described by Giddings et al. Giddings et al., 2010 Int J High Thro Screen. 1:39-47, the contents of which are hereby incorporated by reference in its entirety.

Row | EC50 | SMILES
1 | < 10 µM | COCCN(C)C(=O)[C@H](CCC1CCCCC1)NC(=O)c1cc(-c2c(OC)cccc2OC)n(CC(C)C)n1 [compound 256]
2 | < 10 µM | COc1cccc(OC)c1-c1cc(C(=O)NC(CC(=O)O)C2CCCCC2)nn1-c1ccc(F)cc1 (stereo not drawn) [compound 257]
3 | < 10 µM | C=C[C@@H](CC(=O)NC1CCC1)NC(=O)c1cc(-c2c(OC)cccc2OC)n(C2CCCC2)n1 [compound 263]
4 | < 10 µM | COc1cccc(OC)c1-c1cc(C(=O)N[C@@H](CCC2CCCCC2)Cc2nnn[nH]2)nn1CC(C)C [compound 265]

Second part, the compound before the results:

Row | SMILES | EC50
5 | COc1cccc(OC)c1-c1cc(C(=O)N[C@@H](CCN2CCCCC2)CC(=O)O)nn1CC(C)C [compound 251] | < 10 µM
6 | COC(=O)CNC(=O)CC(NC(=O)c1cc(-c2c(OC)cccc2OC)n(-c2ccc(F)cc2)n1)C1CCCCC1 (stereo not drawn) [compound 258] | < 10 µM
